{"source": "BindingDB's records for doi:10.1021/jm00078a018", "about": "(Merck Research Laboratories, 1994)", "test": "Inhibition of binding of [125I]-CCK-8 to the cholecystokinin type B receptor", "data": [{"smiles": "CN1C(=O)[C@H](NC(=O)Nc2cccc(I)c2)N=C(c2ccccc2)c2ccccc21", "values": [{"measurement": "IC50", "result": 6.9, "unit": "nM"}]}, {"smiles": "O=C(Nc1ccc(Cl)cc1)NC1N=C(c2ccccc2)c2ccccc2N(CC(=O)OCc2ccccc2)C1=O", "note": "(stereo not given) [{3-[3-(4-Chloro-phenyl)-ureido]-2-oxo-5-phenyl-2,3-dihydro-benzo[e][1,4]diazepin-1-yl}-acetic acid benzyl ester]", "values": [{"measurement": "IC50", "result": 44, "unit": "nM"}]}, {"smiles": "Cc1cccc(NC(=O)NC2N=C(c3ccccc3)c3ccccc3N(CCO)C2=O)c1", "note": "(stereo not given) [1-[1-(2-Hydroxy-ethyl)-2-oxo-5-phenyl-2,3-dihydro-1H-benzo[e][1,4]diazepin-3-yl]-3-m-tolyl-urea]", "values": [{"measurement": "IC50", "result": 44, "unit": "nM"}]}, {"smiles": "C#Cc1cccc(NC(=O)NC2N=C(c3ccccc3)c3ccccc3N(C)C2=O)c1", "note": "(stereo not given) [1-(3-Ethynyl-phenyl)-3-(1-methyl-2-oxo-5-phenyl-2,3-dihydro-1H-benzo[e][1,4]diazepin-3-yl)-urea]", "values": [{"measurement": "IC50", "result": 22, "unit": "nM"}]}, {"smiles": "COc1ccc(NC(=O)NC2N=C(c3ccccc3)c3ccccc3N(C)C2=O)cn1", "note": "(stereo not given) [1-(6-Methoxy-pyridin-3-yl)-3-(1-methyl-2-oxo-5-phenyl-2,3-dihydro-1H-benzo[e][1,4]diazepin-3-yl)-urea]", "values": [{"measurement": "IC50", "result": 460, "unit": "nM"}]}, {"smiles": "CN1C(=O)[C@@H](NC(=O)Nc2ccccc2Cl)N=C(c2ccccc2)c2ccccc21", "values": [{"measurement": "IC50", "result": 280, "unit": "nM"}]}, {"smiles": "COc1cccc(NC(=O)NC2N=C(c3ccccc3)c3ccccc3N(CC(=O)N3CCN(C)CC3)C2=O)c1", "note": "(stereo not given) [1-(3-Methoxy-phenyl)-3-{1-[2-(4-methyl-piperazin-1-yl)-2-oxo-ethyl]-2-oxo-5-phenyl-2,3-dihydro-1H-benzo[e][1,4]diazepin-3-yl}-urea]", "values": [{"measurement": "IC50", "result": 4.4, "unit": "nM"}]}, {"smiles": "O=C(CN1C(=O)C(NC(=O)Nc2ccc(Cl)cc2)N=C(c2ccccc2)c2ccccc21)NCc1ccccc1", "note": "(stereo not given) [N-Benzyl-2-{3-[3-(4-chloro-phenyl)-ureido]-2-oxo-5-phenyl-2,3-dihydro-benzo[e][1,4]diazepin-1-yl}-acetamide]", "values": [{"measurement": "IC50", "result": 102, "unit": "nM"}]}, {"smiles": "CN1C(=O)[C@@H](NC(=O)c2ccc(C(F)(F)F)cc2)N=C(c2ccccc2)c2ccccc21", "values": [{"measurement": "IC50", "result": 4600, "unit": "nM"}]}, {"smiles": "CN1C(=O)C(NC(=O)Nc2ccc(F)cc2)N=C(c2ccccc2)c2ccccc21", "note": "(stereo not given) [1-(4-Fluoro-phenyl)-3-(1-methyl-2-oxo-5-phenyl-2,3-dihydro-1H-benzo[e][1,4]diazepin-3-yl)-urea]", "values": [{"measurement": "IC50", "result": 66, "unit": "nM"}]}, {"smiles": "Cc1ccc(NC(=O)NC2N=C(c3ccccc3)c3ccccc3N(CC(=O)Nc3ccncc3)C2=O)cc1", "note": "(stereo not given) [2-[2-Oxo-5-phenyl-3-(3-p-tolyl-ureido)-2,3-dihydro-benzo[e][1,4]diazepin-1-yl]-N-pyridin-4-yl-acetamide]", "values": [{"measurement": "IC50", "result": 190, "unit": "nM"}]}, {"smiles": "Cc1cccc(NC(=O)NC2N=C(c3cccnc3)c3ccccc3N(C)C2=O)c1", "note": "(stereo not given) [1-(1-Methyl-2-oxo-5-pyridin-3-yl-2,3-dihydro-1H-benzo[e][1,4]diazepin-3-yl)-3-m-tolyl-urea]", "values": [{"measurement": "IC50", "result": 92, "unit": "nM"}]}, {"smiles": "CN1C(=O)C(NC(=O)Nc2cccc(C(=O)O)c2)N=C(c2ccccc2)c2ccccc21", "note": "(stereo not given) [3-[3-(1-Methyl-2-oxo-5-phenyl-2,3-dihydro-1H-benzo[e][1,4]diazepin-3-yl)-ureido]-benzoic acid]", "values": [{"measurement": "IC50", "result": 9.7, "unit": "nM"}]}, {"smiles": "CN1C(=O)C(NC(=O)Nc2cccc(CNC(=O)OC(C)(C)C)c2)N=C(c2ccccc2)c2ccccc21", "note": "(stereo not given) [{3-[3-(1-Methyl-2-oxo-5-phenyl-2,3-dihydro-1H-benzo[e][1,4]diazepin-3-yl)-ureido]-benzyl}-carbamic acid tert-butyl ester]", "values": [{"measurement": "IC50", "result": 170, "unit": "nM"}]}, {"smiles": "CN1C(=O)C(NC(=O)Nc2ccncc2)N=C(c2ccccc2)c2ccccc21", "note": "(stereo not given) [1-(1-Methyl-2-oxo-5-phenyl-2,3-dihydro-1H-benzo[e][1,4]diazepin-3-yl)-3-pyridin-4-yl-urea]", "values": [{"measurement": "IC50", "result": 1070, "unit": "nM"}]}, {"smiles": "O=C(Nc1ccc(Cl)cc1)NC1N=C(c2ccccc2)c2ccccc2N(C[C@@H](O)CO)C1=O", "note": "(stereo not given in full) [1-(4-Chloro-phenyl)-3-[1-(2,3-dihydroxy-propyl)-2-oxo-5-phenyl-2,3-dihydro-1H-benzo[e][1,4]diazepin-3-yl]-urea]", "values": [{"measurement": "IC50", "result": 104, "unit": "nM"}]}, {"smiles": "Cc1cccc(NC(=O)NC2N=C(c3ccccc3)c3ccccc3N(CC(=O)ON3CCC[C@@H]3C(=O)O)C2=O)c1", "note": "(stereo not given in full) [1-{2-[2-Oxo-5-phenyl-3-(3-m-tolyl-ureido)-2,3-dihydro-benzo[e][1,4]diazepin-1-yl]-acetoxy}-pyrrolidine-2-carboxylic acid]", "values": [{"measurement": "IC50", "result": 130, "unit": "nM"}]}, {"smiles": "CN1C(=O)C(NC(=O)Nc2ccc(Br)cc2)N=C(c2ccccc2)c2ccccc21", "note": "(stereo not given) [1-(4-Bromo-phenyl)-3-(1-methyl-2-oxo-5-phenyl-2,3-dihydro-1H-benzo[e][1,4]diazepin-3-yl)-urea]", "values": [{"measurement": "IC50", "result": 48, "unit": "nM"}]}, {"smiles": "COc1cccc(NC(=O)N[C@@H]2N=C(c3ccccc3)c3ccccc3N(C)C2=O)c1", "values": [{"measurement": "IC50", "result": 2.2, "unit": "nM"}]}, {"smiles": "CCN(CC)C(=O)CN1C(=O)C(NC(=O)Nc2ccccc2Cl)N=C(c2ccccc2)c2ccccc21", "note": "(stereo not given) [2-{3-[3-(2-Chloro-phenyl)-ureido]-2-oxo-5-phenyl-2,3-dihydro-benzo[e][1,4]diazepin-1-yl}-N,N-diethyl-acetamide]", "values": [{"measurement": "IC50", "result": 3.8, "unit": "nM"}]}, {"smiles": "CN1C(=O)C(NC(=O)Nc2cccc(F)c2)N=C(c2ccccc2)c2ccccc21", "note": "(stereo not given) [1-(3-Fluoro-phenyl)-3-(1-methyl-2-oxo-5-phenyl-2,3-dihydro-1H-benzo[e][1,4]diazepin-3-yl)-urea]", "values": [{"measurement": "IC50", "result": 54, "unit": "nM"}]}, {"smiles": "Cc1cccc(NC(=O)NC2N=C(c3ccccc3)c3ccccc3N(Cc3cnc[nH]3)C2=O)c1", "note": "(stereo not given) [1-[1-(1H-Imidazol-4-ylmethyl)-2-oxo-5-phenyl-2,3-dihydro-1H-benzo[e][1,4]diazepin-3-yl]-3-m-tolyl-urea]", "values": [{"measurement": "IC50", "result": 7.9, "unit": "nM"}]}, {"smiles": "Cc1cccc(NC(=O)NC2N=C(c3ccccc3)c3cnccc3N(C)C2=O)c1", "note": "(stereo not given) [1-(1-Methyl-2-oxo-5-phenyl-2,3-dihydro-1H-pyrido[4,3-e][1,4]diazepin-3-yl)-3-m-tolyl-urea]", "values": [{"measurement": "IC50", "result": 632, "unit": "nM"}]}, {"smiles": "O=C(O)CN1C(=O)C(NC(=O)Nc2ccc(Cl)cc2)N=C(c2ccccc2)c2ccccc21", "note": "(stereo not given) [{3-[3-(4-Chloro-phenyl)-ureido]-2-oxo-5-phenyl-2,3-dihydro-benzo[e][1,4]diazepin-1-yl}-acetic acid]", "values": [{"measurement": "IC50", "result": 72, "unit": "nM"}]}, {"smiles": "Cc1cccc(NC(=O)NC2N=C(c3ccncc3)c3ccccc3N(C)C2=O)c1", "note": "(stereo not given) [1-(1-Methyl-2-oxo-5-pyridin-4-yl-2,3-dihydro-1H-benzo[e][1,4]diazepin-3-yl)-3-m-tolyl-urea]", "values": [{"measurement": "IC50", "result": 52, "unit": "nM"}]}, {"smiles": "CC(=O)Oc1cccc(NC(=O)N[C@@H]2N=C(c3ccccc3)c3ccccc3N(C)C2=O)c1", "values": [{"measurement": "IC50", "result": 500, "unit": "nM"}]}, {"smiles": "CN1C(=O)[C@H](NC(=O)Nc2cccc(N)c2)N=C(c2ccccc2)c2ccccc21", "values": [{"measurement": "IC50", "result": 33, "unit": "nM"}]}, {"smiles": "CN1C(=O)[C@H](NC(=O)c2ccc(C(F)(F)F)cc2)N=C(c2ccccc2)c2ccccc21", "values": [{"measurement": "IC50", "result": 3300, "unit": "nM"}]}, {"smiles": "CCOC(=O)CN1C(=O)C(NC(=O)c2ccccc2Cl)N=C(c2ccccc2F)c2ccccc21", "note": "(stereo not given) [[3-(2-Chloro-benzoylamino)-5-(2-fluoro-phenyl)-2-oxo-2,3-dihydro-benzo[e][1,4]diazepin-1-yl]-acetic acid ethyl ester]", "values": [{"measurement": "IC50", "result": 3200, "unit": "nM"}]}, {"smiles": "CN1C(=O)C(NC(=O)Nc2cccc(C#N)c2)N=C(c2ccccc2)c2ccccc21", "note": "(stereo not given) [1-(3-Cyano-phenyl)-3-(1-methyl-2-oxo-5-phenyl-2,3-dihydro-1H-benzo[e][1,4]diazepin-3-yl)-urea]", "values": [{"measurement": "IC50", "result": 27, "unit": "nM"}]}, {"smiles": "O=C(Nc1ccc(Cl)cc1)NC1N=C(c2ccccc2)c2ccccc2N(C[C@@H](O)CCl)C1=O", "note": "(stereo not given in full) [1-[1-(3-Chloro-2-hydroxy-propyl)-2-oxo-5-phenyl-2,3-dihydro-1H-benzo[e][1,4]diazepin-3-yl]-3-(4-chloro-phenyl)-urea]", "values": [{"measurement": "IC50", "result": 6, "unit": "nM"}]}, {"smiles": "CN1C(=O)C(NC(=O)Nc2cccc(C(F)(F)F)c2)N=C(c2ccccc2)c2ccccc21", "note": "(stereo not given) [1-(1-Methyl-2-oxo-5-phenyl-2,3-dihydro-1H-benzo[e][1,4]diazepin-3-yl)-3-(3-trifluoromethyl-phenyl)-urea]", "values": [{"measurement": "IC50", "result": 3.8, "unit": "nM"}]}, {"smiles": "CN1C(=O)C(NC(=O)Nc2ccc3c(c2)OCO3)N=C(c2ccccc2)c2ccccc21", "note": "(stereo not given) [1-Benzo[1,3]dioxol-5-yl-3-(1-methyl-2-oxo-5-phenyl-2,3-dihydro-1H-benzo[e][1,4]diazepin-3-yl)-urea]", "values": [{"measurement": "IC50", "result": 26, "unit": "nM"}]}, {"smiles": "O=C(Nc1ccc(Cl)cc1)NC1N=C(c2ccccc2)c2ccccc2NC1=O", "note": "(stereo not given) [1-(4-Chloro-phenyl)-3-(2-oxo-5-phenyl-2,3-dihydro-1H-benzo[e][1,4]diazepin-3-yl)-urea]", "values": [{"measurement": "IC50", "result": 270, "unit": "nM"}]}, {"smiles": "CN1C(=O)C(NC(=O)Nc2cccc(Cl)c2)N=C(c2ccccc2)c2ccccc21", "note": "(stereo not given) [1-(3-Chloro-phenyl)-3-(1-methyl-2-oxo-5-phenyl-2,3-dihydro-1H-benzo[e][1,4]diazepin-3-yl)-urea]", "values": [{"measurement": "IC50", "result": 9.8, "unit": "nM"}]}, {"smiles": "Cc1cccc(NC(=O)NC2N=C(c3ccccc3)c3ccccc3N(CC(=O)O)C2=O)c1", "note": "(stereo not given) [[2-Oxo-5-phenyl-3-(3-m-tolyl-ureido)-2,3-dihydro-benzo[e][1,4]diazepin-1-yl]-acetic acid]", "values": [{"measurement": "IC50", "result": 380, "unit": "nM"}]}, {"smiles": "C[C@H](NC(=O)NC1N=C(c2ccccc2)c2ccccc2N(C)C1=O)c1ccccc1", "note": "(stereo not given in full) [1-(1-Methyl-2-oxo-5-phenyl-2,3-dihydro-1H-benzo[e][1,4]diazepin-3-yl)-3-(1-phenyl-ethyl)-urea]", "values": [{"measurement": "IC50", "result": 11000, "unit": "nM"}]}, {"smiles": "CN1C(=O)C(NC(=O)Nc2ccc3c(c2)CCC3)N=C(c2ccccc2)c2ccccc21", "note": "(stereo not given) [1-Indan-5-yl-3-(1-methyl-2-oxo-5-phenyl-2,3-dihydro-1H-benzo[e][1,4]diazepin-3-yl)-urea]", "values": [{"measurement": "IC50", "result": 2.7, "unit": "nM"}]}, {"smiles": "CN1C(=O)C(NC(=O)NC2CCCCC2)N=C(c2ccccc2)c2ccccc21", "note": "(stereo not given) [1-Cyclohexyl-3-(1-methyl-2-oxo-5-phenyl-2,3-dihydro-1H-benzo[e][1,4]diazepin-3-yl)-urea]", "values": [{"measurement": "IC50", "result": 3000, "unit": "nM"}]}, {"smiles": "CN1C(=O)[C@H](NC(=O)Nc2cccc(O)c2)N=C(c2ccccc2)c2ccccc21", "values": [{"measurement": "IC50", "result": 15, "unit": "nM"}]}, {"smiles": "Cc1cccc(NC(=O)NC2N=C(c3ccccc3)c3ccccc3N(Cc3nnc(C)[nH]3)C2=O)c1", "note": "(stereo not given) [1-[1-(5-Methyl-4H-[1,2,4]triazol-3-ylmethyl)-2-oxo-5-phenyl-2,3-dihydro-1H-benzo[e][1,4]diazepin-3-yl]-3-m-tolyl-urea]", "values": [{"measurement": "IC50", "result": 9.7, "unit": "nM"}]}, {"smiles": "CN1C(=O)C(NC(=O)Nc2ccc3ccccc3n2)N=C(c2ccccc2)c2ccccc21", "note": "(stereo not given) [1-(1-Methyl-2-oxo-5-phenyl-2,3-dihydro-1H-benzo[e][1,4]diazepin-3-yl)-3-quinolin-2-yl-urea]", "values": [{"measurement": "IC50", "result": 26, "unit": "nM"}]}, {"smiles": "C=Cc1cccc(NC(=O)N[C@@H]2N=C(c3ccccc3)c3ccccc3N(C)C2=O)c1", "values": [{"measurement": "IC50", "result": 35, "unit": "nM"}]}, {"smiles": "CN1C(=O)[C@H](NC(=O)Nc2cccc(CN)c2)N=C(c2ccccc2)c2ccccc21", "values": [{"measurement": "IC50", "result": 719, "unit": "nM"}]}, {"smiles": "CN1C(=O)[C@H](NC(=O)Nc2cccc(Cl)c2)N=C(c2ccccc2)c2ccccc21", "values": [{"measurement": "IC50", "result": 7.5, "unit": "nM"}]}]}
